Test results published in the supplement of paper PMC10307832.

What was measured:
Experiment in all cases: relative viability (nuclei count vs DMSO), 5 days (fraction); higher = more cells survive
PC-14 = test system: PC-14
Summary of the method: (§1)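 Dosing by pin tool came one day after lung cancer cell lines were seeded in 1536-well plates, using either one drug or a fixed anchor-drug dose plus five library-drug doses (not always all listed) in √10 steps. After 5 days, nuclei were counted on 4× images. Relative viability is treated-well nuclei count divided by vehicle-well nuclei count, and values are medians of duplicate plates.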

HCC-366 = test system: HCC-366
Summary of the method: as §1

NCI-H647 = test system: NCI-H647
Summary of the method: as §1

EMC-BAC-2 = test system: EMC-BAC-2
Summary of the method: as §1

NCI-H460 = test system: NCI-H460
Summary of the method: as §1

NCI-H522 = test system: NCI-H522
Summary of the method: as §1

A-427 = test system: A-427
Summary of the method: as §1

NCI-H2405 = test system: NCI-H2405
Summary of the method: as §1

NCI-H1734 = test system: NCI-H1734
Summary of the method: as §1

SK-MES-1 = test system: SK-MES-1
Summary of the method: as §1

COR-L23 = test system: COR-L23
Summary of the method: as §1

201T = test system: 201T
Summary of the method: as §1

NCI-H1563 = test system: NCI-H1563
Summary of the method: as §1

NCI-H661 = test system: NCI-H661
Summary of the method: as §1

NCI-H1915 = test system: NCI-H1915
Summary of the method: as §1

HCC-15 = test system: HCC-15
Summary of the method: as §1

HOP-62 = test system: HOP-62
Summary of the method: as §1

NCI-H1993 = test system: NCI-H1993
Summary of the method: as §1

COR-L 105 = test system: COR-L 105
Summary of the method: as §1

HCC-78 = test system: HCC-78
Summary of the method: as §1

LK-2 = test system: LK-2
Summary of the method: as §1

BEN = test system: BEN
Summary of the method: as §1

EKVX = test system: EKVX
Summary of the method: as §1

CCNC(=O)c1noc(-c2cc(C(C)C)c(O)cc2O)c1-c1ccc(CN2CCOCC2)cc1 [Luminespib] + COc1cccc2cc(-c3nc([C@H]4CC[C@H](C(=O)O)CC4)n4ncnc(N)c34)[nH]c12 [OSI-027] (partner 0.5 µM)
relative viability (PC-14; first compound 0.002 µM): 0.918 | relative viability (PC-14; first compound 0.006325 µM): 0.598 | relative viability (PC-14; first compound 0.02 µM): 0.11 | relative viability (PC-14; first compound 0.06325 µM): 0.0462 | relative viability (PC-14; first compound 0.2 µM): 0.0587 | relative viability (HCC-366; first compound 0.002 µM): 1.11 | relative viability (HCC-366; first compound 0.006325 µM): 0.832 | relative viability (HCC-366; first compound 0.02 µM): 0.698 | relative viability (HCC-366; first compound 0.06325 µM): 0.0495 | relative viability (HCC-366; first compound 0.2 µM): 0.0391 | relative viability (NCI-H647; first compound 0.002 µM): 0.717 | relative viability (NCI-H647; first compound 0.006325 µM): 0.626 | relative viability (NCI-H647; first compound 0.02 µM): 0.595 | relative viability (NCI-H647; first compound 0.06325 µM): 0.0814 | relative viability (NCI-H647; first compound 0.2 µM): 0.0562 | relative viability (EMC-BAC-2; first compound 0.002 µM): 0.426 | relative viability (EMC-BAC-2; first compound 0.006325 µM): 0.354 | relative viability (EMC-BAC-2; first compound 0.02 µM): 0.415 | relative viability (EMC-BAC-2; first compound 0.06325 µM): 0.348 | relative viability (EMC-BAC-2; first compound 0.2 µM): 0.184 | relative viability (NCI-H460; first compound 0.002 µM): 0.702 | relative viability (NCI-H460; first compound 0.006325 µM): 0.586 | relative viability (NCI-H460; first compound 0.02 µM): 0.0482 | relative viability (NCI-H460; first compound 0.06325 µM): 0.0153 | relative viability (NCI-H460; first compound 0.2 µM): 0.0165 | relative viability (NCI-H522; first compound 0.002 µM): 0.687 | relative viability (NCI-H522; first compound 0.006325 µM): 0.732 | relative viability (NCI-H522; first compound 0.02 µM): 0.615 | relative viability (NCI-H522; first compound 0.06325 µM): 0.538 | relative viability (NCI-H522; first compound 0.2 µM): 0.587 | relative viability (A-427; first compound 0.002 µM): 0.462 | relative viability (A-427; first compound 0.006325 µM): 0.396 | relative viability (A-427; first compound 0.02 µM): 0.366 | relative viability (A-427; first compound 0.06325 µM): 0.158 | relative viability (A-427; first compound 0.2 µM): 0.121 | relative viability (NCI-H2405; first compound 0.002 µM): 0.648 | relative viability (NCI-H2405; first compound 0.006325 µM): 0.545 | relative viability (NCI-H2405; first compound 0.02 µM): 0.532 | relative viability (NCI-H2405; first compound 0.06325 µM): 0.196 | relative viability (NCI-H2405; first compound 0.2 µM): 0.192 | relative viability (NCI-H1734; first compound 0.002 µM): 0.538 | relative viability (NCI-H1734; first compound 0.006325 µM): 0.555 | relative viability (NCI-H1734; first compound 0.02 µM): 0.352 | relative viability (NCI-H1734; first compound 0.06325 µM): 0.168 | relative viability (NCI-H1734; first compound 0.2 µM): 0.156 | relative viability (SK-MES-1; first compound 0.002 µM): 0.609 | relative viability (SK-MES-1; first compound 0.006325 µM): 0.486 | relative viability (SK-MES-1; first compound 0.02 µM): 0.2 | relative viability (SK-MES-1; first compound 0.06325 µM): 0.11 | relative viability (SK-MES-1; first compound 0.2 µM): 0.131 | relative viability (COR-L23; first compound 0.002 µM): 0.925 | relative viability (COR-L23; first compound 0.006325 µM): 0.655 | relative viability (COR-L23; first compound 0.02 µM): 0.508 | relative viability (COR-L23; first compound 0.06325 µM): 0.079 | relative viability (COR-L23; first compound 0.2 µM): 0.0776 | relative viability (201T; first compound 0.002 µM): 0.756 | relative viability (201T; first compound 0.02 µM): 0.668 | relative viability (201T; first compound 0.06325 µM): 0.492 | relative viability (201T; first compound 0.2 µM): 0.159 | relative viability (NCI-H1563; first compound 0.002 µM): 0.756 | relative viability (NCI-H1563; first compound 0.006325 µM): 0.697 | relative viability (NCI-H1563; first compound 0.02 µM): 0.585 | relative viability (NCI-H1563; first compound 0.06325 µM): 0.473 | relative viability (NCI-H1563; first compound 0.2 µM): 0.468 | relative viability (NCI-H661; first compound 0.002 µM): 0.802 | relative viability (NCI-H661; first compound 0.006325 µM): 0.672 | relative viability (NCI-H661; first compound 0.02 µM): 0.58 | relative viability (NCI-H661; first compound 0.06325 µM): 0.199 | relative viability (NCI-H661; first compound 0.2 µM): 0.226 | relative viability (NCI-H1915; first compound 0.002 µM): 0.596 | relative viability (NCI-H1915; first compound 0.006325 µM): 0.502 | relative viability (NCI-H1915; first compound 0.02 µM): 0.517 | relative viability (NCI-H1915; first compound 0.06325 µM): 0.243 | relative viability (NCI-H1915; first compound 0.2 µM): 0.0689 | relative viability (HCC-15; first compound 0.002 µM): 0.686 | relative viability (HCC-15; first compound 0.006325 µM): 0.644 | relative viability (HCC-15; first compound 0.02 µM): 0.556 | relative viability (HCC-15; first compound 0.06325 µM): 0.0983 | relative viability (HCC-15; first compound 0.2 µM): 0.0973 | relative viability (HOP-62; first compound 0.002 µM): 0.83 | relative viability (HOP-62; first compound 0.006325 µM): 0.758 | relative viability (HOP-62; first compound 0.02 µM): 0.648 | relative viability (HOP-62; first compound 0.06325 µM): 0.428 | relative viability (HOP-62; first compound 0.2 µM): 0.111 | relative viability (NCI-H1993; first compound 0.002 µM): 0.598 | relative viability (NCI-H1993; first compound 0.006325 µM): 0.545 | relative viability (NCI-H1993; first compound 0.02 µM): 0.562 | relative viability (NCI-H1993; first compound 0.06325 µM): 0.457 | relative viability (NCI-H1993; first compound 0.2 µM): 0.389 | relative viability (COR-L 105; first compound 0.002 µM): 0.775 | relative viability (COR-L 105; first compound 0.006325 µM): 0.619 | relative viability (COR-L 105; first compound 0.02 µM): 0.331 | relative viability (COR-L 105; first compound 0.06325 µM): 0.162 | relative viability (COR-L 105; first compound 0.2 µM): 0.176 | relative viability (HCC-78; first compound 0.002 µM): 0.361 | relative viability (HCC-78; first compound 0.006325 µM): 0.323 | relative viability (HCC-78; first compound 0.06325 µM): 0.412 | relative viability (HCC-78; first compound 0.2 µM): 0.301 | relative viability (LK-2; first compound 0.002 µM): 0.209 | relative viability (LK-2; first compound 0.006325 µM): 0.191 | relative viability (LK-2; first compound 0.02 µM): 0.149 | relative viability (LK-2; first compound 0.06325 µM): 0.12 | relative viability (LK-2; first compound 0.2 µM): 0.136 | relative viability (BEN; first compound 0.002 µM): 0.288 | relative viability (BEN; first compound 0.006325 µM): 0.292 | relative viability (BEN; first compound 0.02 µM): 0.316 | relative viability (BEN; first compound 0.06325 µM): 0.212 | relative viability (BEN; first compound 0.2 µM): 0.183 | relative viability (EKVX; first compound 0.002 µM): 0.631 | relative viability (EKVX; first compound 0.006325 µM): 0.684 | relative viability (EKVX; first compound 0.06325 µM): 0.658 | relative viability (EKVX; first compound 0.2 µM): 0.143
